The subject of this experiment is bacterial strain Shinella granuli. The experiment can be described thus: Oxitop respirometric screening test (oxygen overconsumption as signature of uncoupling, 7 days). Type of experiment: cell-based. The settings on record: for uncoupling percentage relative to the control: Shinella granuli, 7 days. The text has this:
In order to evaluate the reduction in sludge production by a chemical uncoupling agent in screening, the respirometric technique of Oxitop® cylinders is used. Bacterial strains known and representative of activated sludge (since they are isolated in aeration tanks) are inoculated into a culture medium in the presence of a certain concentration of the uncoupling agent over a period of 7 days. By comparing the respiration of treated inocula comparatively with controls (untreated inocula), it is possible to measure oxygen overconsumption, a physiological signature of the uncoupling effect on bacteria.
The method and the apparatus used are those described in Example 3 of WO 2004/113236 cited as a reference.
The results obtained in a screening test on the bacterial strain Shinella granuli, are gathered in Table 1 below. They are expressed as an uncoupling percentage relative to the control (not comprising any uncoupling agent). THPS (tetrakis(hydromethyl)phosphonium sulfate) produces uncoupling effects in oxitop® respirometry tests of 16±8% for a rated concentration of 3 ppm, the 95% confidence interval of THPS in terms of uncoupling factor being, […] from results obtained in 26 Oxitop® tests.

SMILES strings stand for the structures.

For `COc1cc(C=O)ccc1O` [Vanillin, vanillin], the “uncoupling percentage relative to the control” value runs as follows: (0.1 ppm uncoupling agent) 5%; (0.5 ppm uncoupling agent) 18%; (1 ppm uncoupling agent) 14%; (2 ppm uncoupling agent) 18%-25%; (3 ppm uncoupling agent) 15%-22%; (8 ppm uncoupling agent) 21%-21%. Further, the “uncoupling percentage relative to the control” value (10 ppm uncoupling agent) is 18%-23% and the “uncoupling percentage relative to the control” value (20 ppm uncoupling agent) is 18%.

Consider `OCC(CO)(CO)CO` [Pentaerythritol, pentaerythritol], for which the “uncoupling percentage relative to the control” value (0.5 ppm uncoupling agent) came to 2%, the “uncoupling percentage relative to the control” value (1 ppm uncoupling agent) is given as 8%, the “uncoupling percentage relative to the control” value (3 ppm uncoupling agent) came to 19% and the “uncoupling percentage relative to the control” value (20 ppm uncoupling agent) is 22%. Under “concentration range between 2 and 20 ppm, summary drawn from Table 1”, this compound registered an uncoupling factor of roughly 20%.

Regarding `C[N+](C)(C)CC(=O)[O-]` [Glycine betaine, glycine betaine], the “uncoupling percentage relative to the control” value reads like this: (0.1 ppm uncoupling agent) 5%; (0.5 ppm uncoupling agent) 18%; (1 ppm uncoupling agent) 0%; (2 ppm uncoupling agent) 20%-26%; (3 ppm uncoupling agent) 24%-25%; (8 ppm uncoupling agent) 20%-26%. Moreover, the “uncoupling percentage relative to the control” value (10 ppm uncoupling agent) is listed as 12-20%.

Source of the values: US20130005810A1, “ORGANIC UNCOUPLING AGENTS” (RHODIA OPERATIONS, priority 2009, published 2013).
